Experimental data as given in PMC7037546, “High Cell Selectivity and Bactericidal Mechanism of Symmetric Peptides Centered on D-Pro–Gly Pairs” (International Journal of Molecular Sciences, 2020).
Converted amounts (≈) assume the structure as drawn. Non-standard residues stand in square brackets, D forms with d. Residues, ends and D or L forms follow the SMILES beside them. No end group written: not given here.

Experiments:
RAW 264.7 cells = assay: Cytotoxicity, CCK-8 assay; format: cell-based, murine; conditions: 64 μM peptide, 16 h, CCK-8, OD 450 nm
Procedure: (§1) The cytotoxicity was detected according to a CCK-8 assay as described previously. Briefly, RAW 264.7 and HEK293T cells were placed into 96-well plates at a density of 1.0–2.0 × 10^5, and then cultured for 16 h under conditions of 5% CO2. Then, two-fold diluted peptides in DMEM were added to the plates. After 16 h of culturing, CCK-8 (10%, v/v) was put into each well containing cell culture, and mixtures were cultured for 2 h. The cytotoxicity assay was examined by measuring the OD of the mixtures at 450 nm (Microplate reader, TECAN GENios F129004, Tecan, Salzburg, Austria). The assays were performed three times.

E. coli ATCC25922 [1] = format: cell-based, Escherichia coli; conditions: for MIC after pH treatment, pH 4 / MIC after pH treatment, pH 6 / MIC after pH treatment, pH 8 / MIC after pH treatment, pH 10: ATCC25922, 1 h; for MIC after temperature treatment, 0 °C / MIC after temperature treatment, 37 °C / MIC after temperature treatment, 100 °C / MIC in the presence of FeCl3 / MIC in the presence of KCl / MIC in the presence of MgCl2 / MIC in the presence of NH4Cl / MIC in the presence of NaCl / MIC in the presence of ZnCl2 / MIC, Control / MIC, Control (pH 7): ATCC25922, 16 h
Procedure: (§2) The antimicrobial activity of the designed peptides was examined using the micro-dilution method described previously. The bacteria were cultured for 16 h in MHB at 37 °C, and the microbial suspension was diluted to a final concentration of 10^5 colony-forming units (CFU)/mL. Then, 50 µL of MHB containing different concentrations peptides (0.25–256 µM) was mixed with 50 µL of bacterial solution, and the mixture was added to a 96-well plate. […] The assays were performed three times.
The salt, temperature, and pH sensitivities of designed peptides were determined by MIC assay as described previously. For the salt sensitivity assay, peptides were diluted in deionized water containing different salts, and mixed with E. coli ATCC25922 (10^5 CFU/mL). The final physiological concentrations of different salts were as follows: 150 mM NaCl, 4.5 mM KCl, 6 μM NH4Cl, 1 mM MgCl2, 8 μM ZnCl2, and 4 μM FeCl3. For temperature sensitivity, peptides were cooled on ice for 10 min, and incubated at 37 °C and 100 °C for 30 min. For pH sensitivity, peptides were treated with different pH for 1 h. Briefly, peptides were diluted in deionized water, and the pH of the solution was adjusted to 4.0, 6.0, 8.0, and 10.0 with HCl or NaOH. The subsequent steps were the same as for the MIC measurements. These tests were performed three times.

[2] = test system: Klebsiella pneumonia CMCC46117; conditions: CMCC46117, 16 h
Procedure: as §2

[3] = test system: Enterococcus faecalis ATCC29212; conditions: ATCC29212, 16 h
Procedure: as §2

E. coli K88 = conditions: micro-dilution in MHB, 10^5 CFU/mL, 16 h, OD 492 nm, performed three times
Procedure: as §2

Gram-negative bacteria = conditions: 16 h
Procedure: as §2

[4] = test system: methicillin-resistant S. aureus ATCC43300; conditions: ATCC43300, 16 h
Procedure: as §2

[5] = test system: Pseudomonas aeruginosa ATCC27853; conditions: ATCC27853, 16 h
Procedure: as §2

S. aureus ATCC29213 = conditions: ATCC29213, 16 h
Procedure: as §2

[6] = test system: Staphylococcus aureus ATCC25923; conditions: ATCC25923, 16 h
Procedure: as §2

[7] = test system: Salmonella Pullorum NCTC5776; conditions: NCTC5776, 16 h
Procedure: as §2

[8] = test system: Escherichia coli ATCC25922; assay: microbe, parasite or virus in culture; conditions: ATCC25922, 16 h
Procedure: as §2

E. coli ATCC25922 [9] = conditions: ATCC25922, 16 h
Procedure: The combined antibacterial effect of peptides with other antibiotics was evaluated by checkerboard assay as described previously. […] Subsequently, each peptide at the same concentration was added to the longitudinal column of wells, and each antibiotic at the same concentration was added to the horizontal row of wells. A suspension at 10^5 CFU/mL was put into each well for 16 h at 37 °C. Each assay was performed three times.

HEK293T cells = assay: Cytotoxicity, CCK-8 assay; format: cell-based, human; conditions: 64 μM peptide, 16 h, CCK-8, OD 450 nm
Procedure: as §1

Gram-positive bacteria = assay: Geometric mean of MICs and therapeutic index, Gram (+); format: cell-based; conditions: geometric mean over the Gram-positive strains of Table 2; 256 μM used when no activity at 128 μM
Procedure: as §2

Molecule | cell survival rate (RAW 264.7 cells) | MIC after pH treatment, pH 4 (E. coli ATCC25922 [1]) | MIC after pH treatment, pH 6 (E. coli ATCC25922 [1]) | MIC after pH treatment, pH 8 (E. coli ATCC25922 [1]) | MIC after pH treatment, pH 10 (E. coli ATCC25922 [1]) | MIC after temperature treatment, 0 °C (E. coli ATCC25922 [1]) | MIC after temperature treatment, 37 °C (E. coli ATCC25922 [1]) | MIC after temperature treatment, 100 °C (E. coli ATCC25922 [1]) | MIC in the presence of FeCl3 (E. coli ATCC25922 [1]) | MIC in the presence of KCl (E. coli ATCC25922 [1]) | MIC in the presence of MgCl2 (E. coli ATCC25922 [1]) | MIC in the presence of NH4Cl (E. coli ATCC25922 [1]) | MIC in the presence of NaCl (E. coli ATCC25922 [1]) | MIC in the presence of ZnCl2 (E. coli ATCC25922 [1]) | MIC, Control (E. coli ATCC25922 [1]) | MIC, Control (pH 7) (E. coli ATCC25922 [1]) | MIC [2] | MIC [3] | MIC (E. coli K88) | GM (geometric mean of MICs), Gram (−) (Gram-negative bacteria) | other results
CC(C)C[C@H](NC(=O)[C@H](CC(C)C)NC(=O)[C@H](CCCNC(=N)N)NC(=O)[C@H](CC(C)C)NC(=O)[C@H](CC(C)C)NC(=O)[C@H](CCCNC(=N)N)NC(=O)[C@H](CCCNC(=N)N)NC(=O)CNC(=O)[C@H]1CCCN1C(=O)[C@H](CCCNC(=N)N)NC(=O)[C@H](CCCNC(=N)N)NC(=O)[C@H](CC(C)C)NC(=O)[C@H](CC(C)C)NC(=O)[C@H](CCCNC(=N)N)NC(=O)[C@H](CC(C)C)NC(=O)[C@@H](N)CC(C)C)C(N)=O [LRpG] (H-LLRLLRR[dP]GRRLLRLL-NH2) | 92% | 2 µM | 2 µM | 2 µM | 4 µM | 2 µM (≈ 4.03 µg/mL) | 2 µM (≈ 4.03 µg/mL) | 2 µM (≈ 4.03 µg/mL) | 2 µM | 2 µM | 2 µM | 2 µM | 8 µM | 2 µM | 2 µM (≈ 4.03 µg/mL) | 2 µM | 4 µM (≈ 8.05 µg/mL) | 32 µM (≈ 64.4 µg/mL) | 2 µM (≈ 4.03 µg/mL) | 3.5 µM | MIC [4]: 16 µM (≈ 32.2 µg/mL); MIC [5]: 8 µM (≈ 16.1 µg/mL); MIC (S. aureus ATCC29213): 16 µM (≈ 32.2 µg/mL); MIC [6]: 16 µM (≈ 32.2 µg/mL); MIC [7]: 4 µM (≈ 8.05 µg/mL); MIC [8]: 2 µM (≈ 4.03 µg/mL); FICI in combination with Cefotaxime (E. coli ATCC25922 [9]): 1; FICI in combination with Chloramphenicol (E. coli ATCC25922 [9]): 0.75; FICI in combination with Ciprofloxacin (E. coli ATCC25922 [9]): 0.625; FICI in combination with Streptomycin (E. coli ATCC25922 [9]): 0.5; FICI in combination with other conventional antibiotics (additive effect) (E. coli ATCC25922 [9]): 0.625-1; cell survival rate (HEK293T cells): 93%; GM (geometric mean of MICs), Gram (+) (Gram-positive bacteria): 19.0 µM
LLRLLRRGGRRLLRLL-NH2 [LRGG] | 84% | 2 µM | 2 µM | 2 µM | 4 µM | 2 µM | 2 µM | 2 µM | 2 µM | 2 µM | 4 µM | 2 µM | 8 µM | 2 µM | 2 µM | 2 µM | 8 µM | 32 µM | 4 µM | 4.6 µM | MIC [4]: 32 µM; MIC [5]: 8 µM; MIC (S. aureus ATCC29213): 16 µM; MIC [6]: 16 µM; MIC [7]: 4 µM; MIC [8]: 2 µM; cell survival rate (HEK293T cells): 91%; GM (geometric mean of MICs), Gram (+) (Gram-positive bacteria): 22.6 µM
